68 compounds from PubChem BioAssay AID1508612 can be followed below.

Where “and” joins values, the source holds several entries; their conditions need not be identical. Equal values may be shown once. Where only a bound is given, the exact number is not on record here.

The data set can be described thus: passive permeability, PAMPA, ADME assay (AID 1508612). To be noted: pH 7.4, 30.0 min, 50.0 µM. In general terms: PAMPA measures passive passage across an artificial lipid membrane.
The term Papp denotes a coefficient for how fast a substance crosses the barrier. Take `Cc1ccc(S(=O)(=O)Nc2ccc(C(=O)Nc3nc(-c4ccc(Cl)cc4)cs3)cc2)cc1`: the Papp was found to be 11 ×10⁻⁶ cm/s. The result for `CN=C1CN=C(c2ccc[nH]2)c2cc(Cl)ccc2N1` reads 354 ×10⁻⁶ cm/s and > 1000 ×10⁻⁶ cm/s; that for `O=C(NCc1ccncc1)c1nc(-c2cccnc2)c2cnccn12`, 6.35 ×10⁻⁶ cm/s; that for `Cc1cn2nc(-c3nc(C4CCCN(C(=O)c5ccccc5)C4)no3)cc2c(=O)[nH]1` (stereo not drawn), 136 ×10⁻⁶ cm/s. The compound `Nc1ccccc1CNc1ccc(S(=O)(=O)Nc2nccs2)cc1` came in with a Papp of 1.09 ×10⁻⁶ cm/s. Compared with the last compound, the Papp is about 120-fold lower. With `CCOc1ccc(CCNC(=O)c2cc3ccccc3n2Cc2ccccn2)cc1OCC`, the Papp is over 1000 ×10⁻⁶ cm/s.

Turning to `CC[C@@]1(O)C(=O)OCc2c1cc1n(c2=O)Cc2c-1nc1cc(F)c(C)c3c1c2[C@@H](N)CC3`, the Papp turned out to be 370 ×10⁻⁶ cm/s. The value for `COc1ccc(NC(C)=O)cc1S(=O)(=O)Nc1ccc(Br)cc1` was 627 ×10⁻⁶ cm/s. Take `Cc1ccc(-c2cc(C(=O)Nc3ccc(S(=O)(=O)NCc4nccs4)cc3)c3ccccc3n2)cc1C`: the Papp was 6 ×10⁻⁶ cm/s. Compared with the last compound, the Papp is about 100-fold lower. The result for `CCN1CCN(c2ncc3c(n2)CCN(Cc2cc(Br)cs2)C3)CC1` reads 787 ×10⁻⁶ cm/s; that for `COC(=O)Nc1nc2ccc(C(=O)c3ccccc3)cc2[nH]1`, 282 ×10⁻⁶ cm/s; that for `CN(Cc1ccccc1)C(=O)C1CCN(Cc2cccc3ccccc23)CC1`, over 1000 ×10⁻⁶ cm/s. The result for `Cc1ccc(-n2c(C)cc(C3=NNC(=NC4CC4)SC3)c2C)cc1C` reads over 1000 ×10⁻⁶ cm/s; that for `O=C(NC1CCN(c2cc(-c3ccc(Cl)cc3)[nH]n2)C1)c1ccccc1` (stereo not drawn), 706 ×10⁻⁶ cm/s; that for `COc1cccc2nc(-c3cccs3)nc(NN3C(=O)C=C(C)C3=O)c12`, 353 ×10⁻⁶ cm/s. In turn, `NC1(c2ccc(NC(=O)c3ccnc(-c4cc(C(=O)O)ccn4)c3)cc2)CC1` displayed a Papp of 8.31 ×10⁻⁶ cm/s. This Papp lies about 42-fold lower than the previous one. As to `O=S(=O)(Nc1ccccc1)c1ccc(NCc2cccc(Cl)c2O)cc1`, the Papp was 487 ×10⁻⁶ cm/s. With `Cc1ccc(O)c(-c2cc(-c3ccccc3C)[nH]n2)c1`, the apparent permeability (Papp) turned out to be 511 ×10⁻⁶ cm/s. `Nc1nc(Nc2ccc(S(N)(=O)=O)cc2)n(C(=S)Nc2c(F)cccc2F)n1` displayed a Papp of 6.07 ×10⁻⁶ cm/s. On to `O=C(N/N=C/c1ccc(Sc2ccccn2)o1)c1ccncc1`, for which the Papp is 76.8 ×10⁻⁶ cm/s. In turn, `COc1cccc(CNc2ccc(S(=O)(=O)Nc3nccs3)cc2)c1OC` came in with a Papp of 313 ×10⁻⁶ cm/s. In turn, `O=C1Nc2cc(Cl)ccc2Nc2cscc21` displayed a Papp of 478 ×10⁻⁶ cm/s. The result for `Cc1ccc(C(=O)NC2CCN(c3cnn(CC4CC4)c(=O)c3)CC2)cc1C` reads 473 ×10⁻⁶ cm/s; that for `COc1cccc(CNc2ccc(S(=O)(=O)Nc3nc(C)cs3)cc2)c1O`, 128 ×10⁻⁶ cm/s; that for `CC#CC(=O)N1CCC[C@H]1c1nc(-c2ccc(C(=O)Nc3ccccn3)cc2)c2c(N)nccn12`, 39.9 ×10⁻⁶ cm/s. Consider `O=c1c2c([nH]c3ccc(Br)cc13)CCCC2`, for which the Papp came out at 62.4 ×10⁻⁶ cm/s. The result for `Cc1ccc(S(=O)(=O)Nc2ccccc2C(=O)Nc2cnc(-c3ccccc3)cn2)cc1` reads over 1000 ×10⁻⁶ cm/s; that for `CC(C)c1ccccc1-c1ncc(F)c(NC2(c3ccc(-c4cccnc4)cc3)CC2)n1`, over 1000 ×10⁻⁶ cm/s; that for `COc1c(C)c2c(c(O)c1C/C=C(\C)CCC(=O)OCCN1CCOCC1)C(=O)OC2`, 613 ×10⁻⁶ cm/s.

Take `C=C1[C@@H](C)C2[C@H](Cc3ccccc3)NC(=O)[C@@]23C(/C=C/C[C@H](C)C[C@@](C)(O)/C=C/[C@@H]3OC(C)=O)[C@@H]1O` (stereo partly drawn): the Papp came out at 50 ×10⁻⁶ cm/s. The result for `C[C@@]1(O)[C@H](O)[C@@H](CO)O[C@H]1n1ccc(N)nc1=O` reads 9.97 ×10⁻⁶ cm/s; that for `CC(C)(C)C(=O)N1CCN(c2nccc(Nc3ccccc3Cl)n2)CC1`, over 1000 ×10⁻⁶ cm/s. With `O=C(Nc1cccnc1)c1cccs1`, the Papp was 56.5 ×10⁻⁶ cm/s. The value for `Cc1ccc(-c2[nH]n3c(=O)c4c(nc3c2C)CCCC4)cc1` was 506 ×10⁻⁶ cm/s; that for `CNc1nc(-c2ccc3c(N)n[nH]c3c2)cc(N2C[C@@H](C(=O)NC3CCCCC3)CC[C@@H]2C)n1` was 14.4 ×10⁻⁶ cm/s; that for `CCOC(=O)c1c[nH]c2c3c(ccc2c1=O)CCCC3` was 434 ×10⁻⁶ cm/s.

`C=Cc1ccc(Cn2c(C(=O)O)c(CNC3CCCCC3)c3ccc(OC)cc32)cc1` yielded a Papp of 771 ×10⁻⁶ cm/s. The result for `CC(=O)NC1CCN(c2nc(-c3ccc(Br)cc3)cs2)CC1` reads 789 ×10⁻⁶ cm/s. The result for `O=C(O)CCNc1cc(N2CCc3ccccc3CC2)nc(-c2ccccn2)n1` reads under 1 ×10⁻⁶ cm/s; that for `O=C(O)c1ccnc2cc(C(OCC3CCC(F)(F)CC3)c3ccccc3Cl)[nH]c12` (stereo not drawn), 75.6 ×10⁻⁶ cm/s.

Regarding `C=CC(=O)Nc1cccc(Oc2nc(Nc3ccc(N4CCN(C)CC4)cc3)ncc2Cl)c1`, the Papp was over 1000 ×10⁻⁶ cm/s. The value for `COCCN1CCNc2nc(COc3ccc(C(C)C)cc3)n(Cc3ccccc3)c2C1=O` was 12 ×10⁻⁶ cm/s. In turn, `Cc1ccc(S(=O)(=O)Nc2ccc(C(=O)Nc3nc(-c4ccccc4)cs3)cc2Cl)cc1` had a Papp of 23.9 ×10⁻⁶ cm/s. The value for `Oc1ccc(CNc2ccccc2Br)c2cccnc12` was under 1 ×10⁻⁶ cm/s.

For `COc1cccc(C(=O)Nc2ccc3oc(-c4ccc5ccccc5c4)nc3c2)c1`, the Papp came out at 533 ×10⁻⁶ cm/s. The result for `Cc1ccnc(NC(=S)N2CCN(c3ccc(N)cc3)CC2)c1` reads 717 ×10⁻⁶ cm/s; that for `O=C(Nc1nc(-c2ccccc2)cs1)c1ccncc1NS(=O)(=O)c1c(F)cc(F)cc1F`, 459 ×10⁻⁶ cm/s. Consider `COc1cnccc1-c1nc(Nc2ccc(F)c(F)c2)c2ccccc2n1`, for which the Papp was 3.6 ×10⁻⁶ cm/s. The value for `Fc1cc(Nc2nc(-c3ccncc3)nc3ccccc23)ccc1OC(F)(F)F` was 552 ×10⁻⁶ cm/s; that for `N#Cc1nc(-c2cccc3ccccc23)oc1NCc1ccccc1` was 22.9 ×10⁻⁶ cm/s. Consider `CCc1ccc(NC(=O)c2cc3ncccn3n2)cc1`, for which the Papp was 525 ×10⁻⁶ cm/s. The compound `COC(=O)c1nc(-c2cccc3ccccc23)oc1OC` came in with a Papp of 939 ×10⁻⁶ cm/s. The value for `O=C(Nc1ccccc1-c1cn2c(CN3CCNCC3)csc2n1)c1cnc2ccccc2n1` was 239 ×10⁻⁶ cm/s; that for `COc1ccc(N(C)C(=O)c2cc3c(s2)-c2ccccc2OC3)cc1` was 822 ×10⁻⁶ cm/s. Consider `Fc1cc(Nc2nc(-c3ccncc3)nc3ccccc23)ccc1N1CCCCC1`, for which the Papp was over 1000 ×10⁻⁶ cm/s. As to `Cc1cnc(-c2ccccc2C(C)(C)C)nc1NCc1ccc(-n2ccnn2)cc1`, the Papp is over 1000 ×10⁻⁶ cm/s. Compound `Cc1cccc(N2CCN(C(=O)Cn3ncc4c3-c3ccccc3OC4)CC2)c1C` gave an apparent permeability (Papp) of 676 ×10⁻⁶ cm/s. The result for `COc1ccc(S(=O)(=O)N2CCN(C(=O)C3COc4ccccc4O3)CC2)cc1` (stereo not drawn) reads over 1000 ×10⁻⁶ cm/s; that for `CCN1CCC(N(Cc2ccc3c(c2)OCO3)C(=O)Nc2cc(Cl)ccc2C(=O)OC)CC1`, over 1000 ×10⁻⁶ cm/s. The result for `NC(=O)C1CCN(c2nc(-c3ccc4occc(=O)c4c3)cs2)CC1` reads 106 ×10⁻⁶ cm/s. The value for `CCOC(=O)N1CCN(Cc2nc3cc(NC(=O)c4ccc(OC)cc4)ccc3n2C(C)C)CC1` was over 1000 ×10⁻⁶ cm/s; that for `O=C(NCCc1ccccc1)C1CCN(c2nc(-c3ccc(Br)cc3)cs2)CC1` was under 1 ×10⁻⁶ cm/s; that for `C[C@H]1CN(C(=O)c2nn(C)c3ccccc23)C[C@@H]1c1nc(-c2ccncc2)no1` was 907 ×10⁻⁶ cm/s. With `CCOc1ccc(NC(=O)c2ccc(F)c(S(=O)(=O)N(CC)Cc3ccccc3)c2)cc1`, the Papp was under 1 ×10⁻⁶ cm/s. The value for `O=C(NCc1cccnc1)c1nc(-c2ccc(Cl)nc2)c2cnccn12` was 238 ×10⁻⁶ cm/s; that for `COc1ccc(NC(=O)c2[nH]c(C)c(C(C)=O)c2C)cc1[S+](=O)([O-])Nc1ccccc1C#N` was 71 ×10⁻⁶ cm/s; that for `CC(=O)C1CCN(c2ncc(-c3cccc(N(C)C)c3)s2)CC1` was over 1000 ×10⁻⁶ cm/s. The result for `CCOC(=O)Nc1ccc(NCc2ccc(F)cc2)nc1N` reads 68.3 ×10⁻⁶ cm/s.
